Test results reported in US20050054770A1, “Helicomimetics and stabilized lxxll peptidomimetics” (priority 2001, published 2005).
Where two headings read alike, the source gives them in different places. Positions of bridges follow the written chain, without caps; N, C: chain ends. Non-standard residues stand in square brackets, D forms with d. Residues, ends and D or L forms follow the SMILES beside them. Pen = CC(C)(S)[C@H](N)C(=O)O; d(hCys) = N[C@H](CCS)C(=O)O; hCys = N[C@@H](CCS)C(=O)O; Aib = CC(C)(N)C(=O)O

Columns and labels:
ER alpha = biological target: T1, ER alpha (Homo sapiens, UniProt P03372); test: competition binding assay against a model linear peptide sequence (estrogen receptor-coactivator interaction), ER alpha
T1 sequence (P03372 1-595): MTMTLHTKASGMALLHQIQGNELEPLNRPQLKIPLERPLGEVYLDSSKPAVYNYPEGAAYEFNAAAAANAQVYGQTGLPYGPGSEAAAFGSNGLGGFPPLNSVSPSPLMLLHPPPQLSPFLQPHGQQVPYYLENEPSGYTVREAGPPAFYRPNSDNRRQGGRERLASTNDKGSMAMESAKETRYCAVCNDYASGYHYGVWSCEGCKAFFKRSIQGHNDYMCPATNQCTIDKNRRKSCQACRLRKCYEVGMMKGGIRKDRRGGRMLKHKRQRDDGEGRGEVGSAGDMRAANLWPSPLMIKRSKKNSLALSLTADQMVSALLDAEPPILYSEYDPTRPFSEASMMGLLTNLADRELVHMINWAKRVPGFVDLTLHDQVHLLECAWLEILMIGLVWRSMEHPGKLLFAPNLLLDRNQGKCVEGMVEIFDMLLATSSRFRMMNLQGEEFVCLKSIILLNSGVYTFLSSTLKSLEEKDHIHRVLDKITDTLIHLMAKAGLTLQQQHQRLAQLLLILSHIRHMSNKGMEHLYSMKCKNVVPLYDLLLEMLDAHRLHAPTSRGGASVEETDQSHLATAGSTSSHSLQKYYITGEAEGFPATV
Experimental: (§1) The synthetic helicormimetic peptides designed as antagonists of the estrogen receptor-coactivator interactions were tested in a competition binding assay (Lilly Research Labs) against a model linear peptide sequence. Activities are reported in the Table below in Ki values, with two of the best analogs labeled as PERM-1 and PERM-2, or Peptidomimetic Estrogen Receptor Modulators.

ER beta = ER beta (Homo sapiens, UniProt Q92731); test: competition binding assay against a model linear peptide sequence (estrogen receptor-coactivator interaction), ER beta
Experimental: as §1

[1] = competition binding assay (Lilly Research Labs), read-out: Ki ER α
[2] = competition binding assay (Lilly Research Labs), read-out: Ki ER β

Chain of ER beta (Q92731 whole entry): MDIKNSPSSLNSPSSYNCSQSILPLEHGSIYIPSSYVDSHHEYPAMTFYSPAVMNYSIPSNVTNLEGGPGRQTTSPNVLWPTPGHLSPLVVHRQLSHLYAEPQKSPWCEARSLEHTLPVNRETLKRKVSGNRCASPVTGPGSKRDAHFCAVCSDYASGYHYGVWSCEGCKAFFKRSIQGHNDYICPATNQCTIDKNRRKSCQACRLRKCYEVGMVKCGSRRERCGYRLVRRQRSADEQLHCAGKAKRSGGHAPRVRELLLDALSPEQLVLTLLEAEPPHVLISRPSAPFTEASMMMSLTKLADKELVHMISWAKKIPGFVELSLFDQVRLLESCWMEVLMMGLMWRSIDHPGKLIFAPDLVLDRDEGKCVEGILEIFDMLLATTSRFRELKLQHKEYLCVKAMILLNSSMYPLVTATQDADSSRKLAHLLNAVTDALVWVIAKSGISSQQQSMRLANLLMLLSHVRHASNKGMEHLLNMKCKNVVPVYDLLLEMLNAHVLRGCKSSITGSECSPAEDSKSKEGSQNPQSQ

| SMILES | Ki (ER alpha; [1]) [nM] | Ki (ER beta; [2]) [nM] | Ki (ER alpha; read-out: Ki value against ER alpha) [nM] | Ki (ER beta; read-out: Ki value against ER beta) [nM] | selectivity ER alpha versus ER beta (ER alpha; from Ki values against ER alpha and ER beta) |
| --- | --- | --- | --- | --- | --- |
| CC[C@H](C)[C@@H]1NC(=O)[C@H](NC(=O)[C@H](N)CCCCN)CSSC[C@@H](C(=O)N[C@@H](CCCNC(=N)N)C(=O)N[C@@H](CC(C)C)C(=O)N[C@@H](CC(C)C)C(=O)N[C@@H](CCC(N)=O)C(N)=O)NC(=O)[C@H](CC(C)C)NC1=O [AKG-I-28, H-D-Lys-cyclo (D-Cys-Ile-Leu-Cys)-Arg-Leu-Leu-Gln-NH2] (H-[dK][dC]ILCRLLQ-NH2; disulfide 2-5) | 220 | 1900 |  |  |  |
| CC[C@H](C)[C@@H]1NC(=O)[C@H](NC(=O)[C@@H](N)CCCNC(=N)N)CSSC(C)(C)[C@@H](C(=O)N[C@@H](CCCNC(=N)N)C(=O)N[C@@H](CC(C)C)C(=O)N[C@@H](CC(C)C)C(=O)N[C@@H](CCC(N)=O)C(N)=O)NC(=O)[C@H](CC(C)C)NC1=O [AKG-II-10, H-Arg-cyclo (D-Cys-Ile-Leu-Pen)-Arg-Leu-Leu-Gln-NH2] (H-R[dC]IL[Pen]RLLQ-NH2; disulfide 2-5) | 88 | 1910 |  |  |  |
| CC[C@H](C)[C@@H]1NC(=O)[C@H](NC(=O)[C@H](CCCCN)NC(=O)C(C)(C)N)CSSC[C@@H](C(=O)N[C@@H](CCCNC(=N)N)C(=O)N[C@@H](CC(C)C)C(=O)N[C@@H](CC(C)C)C(=O)N[C@@H](CCC(N)=O)C(N)=O)NC(=O)[C@H](CC(C)C)NC1=O [AML-I-83/4, Aib-Lys-cyclo(D-Cys-Ile-Leu-Cys)-Arg-Leu-Leu-Gln-NH2] (H-[Aib]K[dC]ILCRLLQ-NH2; disulfide 3-6; N-terminus assumed) | 130 | 1400 |  |  |  |
| CC(C)C[C@H](NC(=O)[C@H](CC(C)C)NC(=O)[C@H](CCCNC(=N)N)NC(=O)[C@H]1CSSC[C@@H](NC(=O)[C@@H](N)CCCCN)C(=O)N[C@@H](CC(C)C)C(=O)N1)C(=O)N[C@@H](CCC(N)=O)C(N)=O [AKG-I-64, H-Lys-cyclo(D-Cys-Leu-D-Cys)-Arg-Leu-Leu-Gln-NH2] (H-K[dC]L[dC]RLLQ-NH2; disulfide 2-4) | 1800 | 5200 |  |  |  |
| CC[C@H](C)[C@@H]1NC(=O)[C@@H](NC(=O)[C@@H](N)CCCCN)CSC[C@@H](C(=O)N[C@@H](CCCNC(=N)N)C(=O)N[C@@H](CC(C)C)C(=O)N[C@@H](CC(C)C)C(=O)N[C@@H](CCC(N)=O)C(N)=O)NC(=O)[C@H](CC(C)C)NC1=O [AKG-I-39, H-Lys-cyclo (Ala-Ile-Leu-Ala)- Arg-Leu-Leu-Gln-NH2, Lanthionine] | 1180 | 15400 |  |  |  |
| CC[C@H](C)[C@@H]1NC(=O)[C@H](NC(=O)[C@@H](N)CCCCN)CSSC[C@H](C(=O)N[C@@H](CCCNC(=N)N)C(=O)N[C@@H](CC(C)C)C(=O)N[C@@H](CC(C)C)C(=O)N[C@@H](CCC(N)=O)C(N)=O)NC(=O)[C@H](CC(C)C)NC1=O [AKG-I-61, H-Lys-cyclo(D-Cys-Ile-Leu-D-Cys)-Arg-Leu-Leu-Gln-NH2] (H-K[dC]IL[dC]RLLQ-NH2; disulfide 2-5) | 928 | 3900 |  |  |  |
| CC[C@H](C)[C@H](NC(=O)[C@H](CCCCN)NC(=O)[C@@H](N)CCCCN)C(=O)N[C@@H](CC(C)C)C(=O)N[C@@H](Cc1c[nH]cn1)C(=O)N[C@@H](CCCNC(=N)N)C(=O)N[C@@H](CC(C)C)C(=O)N[C@@H](CC(C)C)C(=O)N[C@@H](CCC(N)=O)C(N)=O [AML-I-61/2, H-Lys-Lys-Ile-Leu-His-Arg-Leu-Leu-Gln-NH2] (H-KKILHRLLQ-NH2) | 170 | 2800 |  |  |  |
| CC[C@H](C)[C@@H]1NC(=O)[C@@H](NC(=O)[C@@H](N)CCCCN)CSSC[C@H](C(=O)N[C@@H](CCCNC(=N)N)C(=O)N[C@@H](CC(C)C)C(=O)N[C@@H](CC(C)C)C(=O)N[C@@H](CCC(N)=O)C(N)=O)NC(=O)[C@H](CC(C)C)NC1=O [AKG-I-60, H-Lys-cyclo(Cys-Ile-Leu-D-Cys)-Arg-Leu-Leu-Gln-NH2] (H-KCIL[dC]RLLQ-NH2; disulfide 2-5) | 2400 | 7200 |  |  |  |
| CC(C)C[C@H](NC(=O)[C@H](CC(C)C)NC(=O)[C@H](CCC(N)=O)NC(=O)[C@H](CCC(=O)O)NC(=O)[C@H](CC(C)C)NC(=O)CC1O[C@H](CO)[C@@H](O)[C@H](O)[C@@H]1O)C(=O)O (stereo partly drawn) [AML-I-31, Mannosylacetvl-Leu-Glu-Gln-Leu-Leu-OH] |  | 339000 |  |  |  |

Now those with a lower Ki (ER beta; [2]), led by results:

| Ki (ER alpha; [1]) [nM] | Ki (ER beta; [2]) [nM] | Ki (ER alpha; read-out: Ki value against ER alpha) [nM] | Ki (ER beta; read-out: Ki value against ER beta) [nM] | SMILES | selectivity ER alpha versus ER beta (ER alpha; from Ki values against ER alpha and ER beta) |
| --- | --- | --- | --- | --- | --- |
| 174 | 1160 |  |  | CC[C@H](C)[C@@H]1NC(=O)[C@@H](NC(=O)[C@@H](N)CCCNC(=N)N)CSSC[C@@H](C(=O)N[C@@H](CC(C)C)C(=O)N[C@@H](CC(C)C)C(=O)N[C@@H](CCC(N)=O)C(N)=O)NC(=O)[C@H](CCCNC(=N)N)NC(=O)[C@H](CC(C)C)NC1=O [AKG-II-8, H-Arg-cyclo (Cys-Ile-Leu-Arg-Cys)-Leu-Leu-Gln-NH2] (H-RCILRCLLQ-NH2; disulfide 2-6) |  |
| 35 | 591 |  |  | CC[C@H](C)[C@@H]1NC(=O)[C@H](NC(=O)[C@@H](N)CCCNC(=N)N)CCSSC[C@@H](C(=O)N[C@@H](CCCNC(=N)N)C(=O)N[C@@H](CC(C)C)C(=O)N[C@@H](CC(C)C)C(=O)N[C@@H](CCC(N)=O)C(N)=O)NC(=O)[C@H](CC(C)C)NC1=O [AKG-II-4, H-Arg-cyclo (DHomoCys-lIe-Leu-Cys)- Arg-Leu-Leu-Gln-NH2] (H-R[d(hCys)]ILCRLLQ-NH2; disulfide 2-5) |  |
|  | 390 | 25 | ~390 | CC[C@H](C)[C@@H]1NC(=O)[C@H](NC(=O)[C@@H](N)CCCCN)CSSC[C@@H](C(=O)N[C@@H](CCCNC(=N)N)C(=O)N[C@@H](CC(C)C)C(=O)N[C@@H](CC(C)C)C(=O)N[C@@H](CCC(N)=O)C(N)=O)NC(=O)[C@H](CC(C)C)NC1=O [AML-I-48/4, H-Lys-cyclo (D-Cys-Ile-Leu-Cys)-Arg-Leu-Leu-Gln-NH2] (H-K[dC]ILCRLLQ-NH2; disulfide 2-5) | exhibits selectivity against the ER alpha receptor |
| 13 | 216 |  |  | CC[C@H](C)[C@@H]1NC(=O)[C@H](CC(C)C)NC(=O)[C@H](NC(=O)[C@@H](N)CCCNC(=N)N)CSSC[C@@H](C(=O)N[C@@H](CCCNC(=N)N)C(=O)N[C@@H](CC(C)C)C(=O)N[C@@H](CC(C)C)C(=O)N[C@@H](CCC(N)=O)C(N)=O)NC1=O [AKG-II-1, H-Arg-cyclo (D-Cys-Leu-Ile-Cys)-Arg-Leu-Leu-Gln-NH2] (H-R[dC]LICRLLQ-NH2; disulfide 2-5) |  |
| 13 | 214 |  |  | CC[C@H](C)[C@@H]1NC(=O)[C@H](NC(=O)[C@@H](N)CCCNC(=N)N)CSSCC[C@@H](C(=O)N[C@@H](CCCNC(=N)N)C(=O)N[C@@H](CC(C)C)C(=O)N[C@@H](CC(C)C)C(=O)N[C@@H](CCC(N)=O)C(N)=O)NC(=O)[C@H](CC(C)C)NC1=O [AKG-II-3, H-Arg-cyclo (D-Cys-Ile-Leu-HomoCys)-Arg-Leu-Leu-Gln-NH2] (H-R[dC]IL[hCys]RLLQ-NH2; disulfide 2-5) |  |
| 11 | 77 |  |  | CC[C@H](C)[C@@H]1NC(=O)[C@H](NC(=O)[C@@H](N)CCCNC(=N)N)CSSC[C@@H](C(=O)N[C@@H](CCCNC(=N)N)C(=O)N[C@@H](CC(C)C)C(=O)N[C@@H](CC(C)C)C(=O)N[C@@H](CCC(N)=O)C(N)=O)NC(=O)[C@H](CC(C)C)NC1=O [AKG-I-50, H-Arg-cyclo(D-Cys-Ile-Leu-Cys)-Arg-Leu-Leu-Gln-NH2] (H-R[dC]ILCRLLQ-NH2; disulfide 2-5) |  |
